Test results published in patent publication US20220087987A1, “A METHOD FOR TREATING SWI/SNF COMPLEX-DEFICIENT CANCERS COMPRISING GLUTATHIONE (GSH) METABOLIC PATHWAY INHIBITOR” (National Cancer Center, priority 2018, published 2022).

Tested on: NOXA
Test: Quantitation of NOXA mRNA (quantitative RT-PCR)
Type: cell-based, human
Conditions: ARID1A-KO cells and ARID1A-deficient cancer cells, 24 hrs
Experimental: mRNA was extracted and cDNA was synthesized using the SuperPrep (Registered Trademark) Cell Lysis & RT Kit for qPCR (TOYOBO). Aliquots of cDNA were subjected to quantitative PCR using the SuperPrep/THUNDERBIRD Probe qPCR Set (TOYOBO) and TaqMan Gene Expression Assays (Life Technologies). The following gene-specific primer/probe sets were used: NOXA (PMAIP1) (Hs00560402 ml), NRF2 (NFE2L2) (Hs00975961 g_1), GCLC (Hs00155249 ml), GSS (Hs00609286_m1), and SLC7A11 (Hs00921938_m1). PCR was performed in an ABI StepOnePlus Real-Time PCR System (Life Technologies) under the following conditions: denaturation at 95° C. for 15 s, followed by annealing and extension at 60° C. for 30 s (40 cycles). For each sample, the mRNA levels of target genes were normalized against levels of GAPDH mRNA. The target/GAPDH ratios were then normalized against those in control samples using the 2-ΔΔCt method.

In the case of `COCC1(CO)C(=O)C2CCN1CC2` (stereo not shown) [APR-246], the “mRNA expression of NOXA” value is reported as “increased”.
